Patent US20240041042A1, “1-(PYRIDYL)-5-AZINYLPYRAZOLE DERIVATIVES, AND THEIR USE FOR CONTROL OF UNDESIRED PLANT GROWTH” (Bayer Aktiengesellschaft, priority 2020, published 2024)

Columns and labels:
Type in all cases: in vivo
Lolium rigidum (LOLRI) [1] = test: Pre-emergence herbicidal action against LOLRI
Procedure, shortened: (§1)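 Greenhouse pot trial: seeds sown, soil-covered, sprayed before emergence with compound in water (0.5% additive; 600 l/ha; ≤320 g/ha). Scoring visual, ~3 weeks, 0–100% scale vs untreated.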

[2] = tested on: Matricaria inodora (MATIN); test: Pre-emergence herbicidal action against MATIN
Procedure, shortened: as §1

[3] = tested on: Verconica persica (VERPE); test: Pre-emergence herbicidal action against VERPE
Procedure, shortened: as §1

[4] = tested on: Echinochloa crus-galli (ECHCG); test: Pre-emergence herbicidal action against ECHCG
Procedure, shortened: as §1

[5] = tested on: Abutilon theophrasti (ABUTH); test: Pre-emergence herbicidal action against ABUTH; conditions: Dosage column 320 g/ha (title prints 3200 g/ha); scored visually after about 3 weeks; 100% = plants have died
Procedure, shortened: as §1

[6] = tested on: Amaranthus retroflexus (AMARE); test: Pre-emergence herbicidal action against AMARE; conditions: visual scoring after about 3 weeks vs untreated controls
Procedure, shortened: as §1

[7] = tested on: Verconica persica (VERPE); test: Post-emergence herbicidal action against VERPE
Procedure, shortened: (§2)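 Greenhouse plants sprayed at the one-leaf stage, 2–3 weeks after sowing, with WP or EC formulations plus 0.5% additive at 600 l/ha water. Activity rated visually after about 3 weeks versus untreated controls (100% = dead, 0% = like control), at 320 g/ha or lower.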

Avena fatua (AVEFA) [8] = test: Pre-emergence herbicidal action against AVEFA; conditions: visual scoring after about 3 weeks vs untreated controls
Procedure, shortened: as §1

Lolium rigidum (LOLRI) [9] = test: Post-emergence herbicidal action against LOLRI
Procedure, shortened: as §2

Viola tricolor (VIOTR) [10] = test: Post-emergence herbicidal action against VIOTR
Procedure, shortened: as §2

[11] = tested on: Pharbitis purpurea (PHBPU); test: Pre-emergence herbicidal action against PHBPU
Procedure, shortened: as §1

[12] = tested on: Alopecurus myosuroides (ALOMY); test: Post-emergence herbicidal action against ALOMY; conditions: visual rating about 3 weeks after treatment vs untreated controls (100% = plants have died, 0% = like control plants)
Procedure, shortened: as §2

[13] = tested on: Matricaria inodora (MATIN); test: Post-emergence herbicidal action against MATIN
Procedure, shortened: as §2

[14] = tested on: Polygonum convolvulus (POLCO); test: Pre-emergence herbicidal action against POLCO
Procedure, shortened: as §1

[15] = tested on: Pharbitis purpurea (PHBPU); test: Post-emergence herbicidal action against PHBPU
Procedure, shortened: as §2

Setaria viridis (SETVI) [16] = test: Pre-emergence herbicidal action against SETVI
Procedure, shortened: as §1

Viola tricolor (VIOTR) [17] = test: Pre-emergence herbicidal action against VIOTR
Procedure, shortened: as §1

[18] = tested on: Alopecurus myosuroides (ALOMY); test: Pre-emergence herbicidal action against ALOMY; conditions: scored visually after about 3 weeks, 100% = plants have died
Procedure, shortened: as §1

Setaria viridis (SETVI) [19] = test: Post-emergence herbicidal action against SETVI
Procedure, shortened: as §2

[20] = tested on: Echinochloa crus-galli (ECHCG); test: Post-emergence herbicidal action against ECHCG
Procedure, shortened: as §2

Avena fatua (AVEFA) [21] = test: Post-emergence herbicidal action against AVEFA; conditions: visual rating about 3 weeks after treatment
Procedure, shortened: as §2

SMILES	Pre-emergence action against LOLRI in % (Lolium rigidum (LOLRI) [1]; dosage 320 g/ha) [%]	Pre-emergence action against MATIN in % ([2]; dosage 80 g/ha) [%]	Pre-emergence action against MATIN in % ([2]; dosage 320 g/ha) [%]	Pre-emergence action against VERPE in % ([3]; dosage 320 g/ha) [%]	Pre-emergence action against ECHCG in % ([4]; dosage 80 g/ha) [%]	Pre-emergence action against ECHCG in % ([4]; dosage 320 g/ha) [%]	Pre-emergence action against ABUTH [5] [%]	Pre-emergence action against AMARE in % ([6]; 80 g/ha) [%]	Pre-emergence action against AMARE in % ([6]; 320 g/ha) [%]	Post-emergence action against VERPE in % ([7]; 320 g/ha, VERPE) [%]	Post-emergence action against VERPE in % ([7]; dosage 80 g/ha) [%]	Pre-emergence action against AVEFA in % (Avena fatua (AVEFA) [8]; 320 g/ha) [%]	Post-emergence action against LOLRI in % (Lolium rigidum (LOLRI) [9]; dosage 320 g/ha) [%]	Post-emergence action against VIOTR in % (Viola tricolor (VIOTR) [10]; 80 g/ha) [%]	Post-emergence action against VIOTR in % (Viola tricolor (VIOTR) [10]; 320 g/ha) [%]	Pre-emergence action against PHBPU in % ([11]; dosage 80 g/ha) [%]	Pre-emergence action against PHBPU in % ([11]; dosage 320 g/ha) [%]	Post-emergence action against ALOMY in % ([12]; 80 g/ha) [%]	Post-emergence action against ALOMY in % ([12]; 320 g/ha) [%]	Post-emergence action against MATIN in % ([13]; dosage 80 g/ha) [%]	further results
CCOC(=O)COc1nn(-c2ncccc2C)c(-c2cncc(F)c2)c1Br [Example I-211]	80	90	90	100	90	100	80	100	100	90	80	90	80	80	90	90	90	80	90	80	Post-emergence action against MATIN in % ([13]; dosage 320 g/ha): 80%; Pre-emergence action against POLCO in % ([14]; dosage 80 g/ha): 90%; Pre-emergence action against POLCO in % ([14]; dosage 320 g/ha): 90%; Post-emergence action against PHBPU in % ([15]; dosage 80 g/ha): 90%; Post-emergence action against PHBPU in % ([15]; dosage 320 g/ha): 100%; Pre-emergence action against SETVI in % (Setaria viridis (SETVI) [16]; dosage 80 g/ha): 90%; Pre-emergence action against SETVI in % (Setaria viridis (SETVI) [16]; dosage 320 g/ha): 100%; Pre-emergence action against VIOTR in % (Viola tricolor (VIOTR) [17]; 320 g/ha, Viola tricolor): 100%; Pre-emergence action against VIOTR in % (Viola tricolor (VIOTR) [17]; dosage 80 g/ha): 90%; Pre-emergence action against ALOMY ([18]; 80 g/ha): 80%; Pre-emergence action against ALOMY ([18]; 320 g/ha): 100%; Post-emergence action against SETVI in % (Setaria viridis (SETVI) [19]; dosage 80 g/ha): 80%; Post-emergence action against SETVI in % (Setaria viridis (SETVI) [19]; dosage 320 g/ha): 80%; Post-emergence action against ECHCG in % ([20]; dosage 80 g/ha): 80%; Post-emergence action against ECHCG in % ([20]; dosage 320 g/ha): 80%
CCOC(=O)[C@@H](C)Oc1nn(-c2ncccc2F)c(-c2ccc(F)nc2)c1C(F)(F)F [Example I-308]	100	100	100	100	100	100	100	100	100	90	90	100	100	90	90	90	90	100	100	80	Pre-emergence action against LOLRI in % (Lolium rigidum (LOLRI) [1]; dosage 80 g/ha): 100%; Pre-emergence action against VERPE in % ([3]; dosage 80 g/ha): 100%; Pre-emergence action against AVEFA in % (Avena fatua (AVEFA) [8]; 80 g/ha): 100%; Post-emergence action against AVEFA in % (Avena fatua (AVEFA) [21]; 80 g/ha): 90%; Post-emergence action against AVEFA in % (Avena fatua (AVEFA) [21]; 320 g/ha): 90%; Post-emergence action against LOLRI in % (Lolium rigidum (LOLRI) [9]; dosage 80 g/ha): 90%; Post-emergence action against MATIN in % ([13]; dosage 320 g/ha): 90%; Pre-emergence action against POLCO in % ([14]; dosage 80 g/ha): 100%; Pre-emergence action against POLCO in % ([14]; dosage 320 g/ha): 100%; Post-emergence action against PHBPU in % ([15]; dosage 320 g/ha): 90%; Pre-emergence action against SETVI in % (Setaria viridis (SETVI) [16]; dosage 320 g/ha): 100%; Pre-emergence action against VIOTR in % (Viola tricolor (VIOTR) [17]; 320 g/ha, Viola tricolor): 100%; Pre-emergence action against VIOTR in % (Viola tricolor (VIOTR) [17]; dosage 80 g/ha): 100%; Pre-emergence action against ALOMY ([18]; 80 g/ha): 100%; Pre-emergence action against ALOMY ([18]; 320 g/ha): 100%; Post-emergence action against ECHCG in % ([20]; dosage 80 g/ha): 90%; Post-emergence action against ECHCG in % ([20]; dosage 320 g/ha): 90%
C[C@@H](Oc1nn(-c2ncccc2F)c(-c2ccc(F)nc2)c1C(F)(F)F)C(=O)O [Example I-317]	100	100	100	100	100	100	90	100	100	90	90	100	90	90	90	90	90	100	100	90	Pre-emergence action against LOLRI in % (Lolium rigidum (LOLRI) [1]; dosage 80 g/ha): 100%; Pre-emergence action against VERPE in % ([3]; dosage 80 g/ha): 80%; Pre-emergence action against AVEFA in % (Avena fatua (AVEFA) [8]; 80 g/ha): 90%; Post-emergence action against AVEFA in % (Avena fatua (AVEFA) [21]; 80 g/ha): 90%; Post-emergence action against AVEFA in % (Avena fatua (AVEFA) [21]; 320 g/ha): 90%; Post-emergence action against LOLRI in % (Lolium rigidum (LOLRI) [9]; dosage 80 g/ha): 90%; Post-emergence action against MATIN in % ([13]; dosage 320 g/ha): 90%; Pre-emergence action against POLCO in % ([14]; dosage 80 g/ha): 100%; Pre-emergence action against POLCO in % ([14]; dosage 320 g/ha): 100%; Post-emergence action against PHBPU in % ([15]; dosage 320 g/ha): 80%; Pre-emergence action against SETVI in % (Setaria viridis (SETVI) [16]; dosage 80 g/ha): 80%; Pre-emergence action against SETVI in % (Setaria viridis (SETVI) [16]; dosage 320 g/ha): 90%; Pre-emergence action against VIOTR in % (Viola tricolor (VIOTR) [17]; 320 g/ha, Viola tricolor): 100%; Pre-emergence action against VIOTR in % (Viola tricolor (VIOTR) [17]; dosage 80 g/ha): 100%; Pre-emergence action against ALOMY ([18]; 80 g/ha): 100%; Pre-emergence action against ALOMY ([18]; 320 g/ha): 100%; Post-emergence action against ECHCG in % ([20]; dosage 80 g/ha): 80%; Post-emergence action against ECHCG in % ([20]; dosage 320 g/ha): 90%
